US4443448A, “Indane derivatives, pharmaceutical compositions thereof and method of preparation” (priority 1980, dated 1984)
Where two headings read alike, the source gives them in different places.

Columns and labels:
[1] = tested on: methylphenidate; test: Methylphenidate antagonism in mice; assay type: in vivo; conditions: for ED50: Mus musculus, ip
Method: Methylphenidate antagonism (ED50 mg/kg i.p.)
(§1) Perspex observation cages without bottom and lid, consisting of 5 sections each measuring 12×25×30 cm.
3×2 mice are used for each dose level. Two or 24 hours after injection of test substance, methylphenidate, 60 mg/kg, is injected s.c. After administration of methylphenidate the mice are placed in the observation cages, 2 in each cage, where they remain for exactly 1 hour. The cages were placed on corrugated paper, the corrugations facing upwards. It is examined whether the mice have been biting the corrugated paper or not. […] If one or more of the control pairs have not been biting, the test has to be repeated on a new set of mice.
The result is stated in fractions: 0/3, 1/3, 2/3 and 3/3 where 0, 1, 2 and 3 are the number of pairs which have not been biting on receipt of the dose in question.

[2] = in vivo; conditions: iv
[3] = in vivo; parameters: species or system rats; conditions: for Ratio catalep./Amphet.: catalepsy ED50 / amphetamine antagonism ED50; for ED50: rat, in vivo, po, rats, p.o., strongest effect within first 6 hours, read-out: Catalep. (catalepsy wire mesh, rat, max, ED50)
Method: A vertical wire netting (50 cm×49 cm). The meshes (openings) of the netting are square (1 cm×1 cm). The wire diameter is 2 mm.
The animals are labeled and used in groups of five. The test substance is administered orally (p.o) at 4 dose levels selected from the fixed dose scale.
The animals are placed in the middle of the vertical wire netting 60, 120, 180, 240, 300 and 360 minutes after administration of the test compound. The animals are considered cataleptic when they remain immobile during a period of 15 seconds.
This cataleptic reaction is designated +. If the rats are "atonic" and passively slide down the wire mesh they are considered not cataleptic. If the animals climb up and down the wire mesh they are nor cataleptic.
In both situations the designation--is used.

[4] = Mouse grid shock (analgesia); assay type: in vivo; conditions: mice, minimal effective dose, in mg/kg
Method: The mouse grid consists of a perspex cage with wire grid bottom and a perspex lid, on which is placed a microphone sensitive to the frequency of a mouse squeak. A stimulator with motordriven potentiometer applies a sequence of square wave impulses of continuously increasing milliamperage to the grid. Frequency of impulses 20 cycles/sec., duration 5 msec. Milliamperage is recorded on a digital amperemeter connected to the stimulator. Activation of the microphone by a mouse-squeak cuts off the current and the final milliamperage appears on the meter.
Five mice are used for each dose level. Each mouse serves as its own control.
Prior to the administration of test substance the animals are placed on the grid one at a time, and the pain threshold is determined by increasing the current intensity until the mouse squeaks. The pain threshold may be read on the milliamperemeter. Fifteen minutes and 30 minutes after administration of test substance the mice are tested again and the pain thresholds recorded.
Analgesic effect is present, when the pain threshold is increased over the pre-dosing value (control value). The results are stated as % increase in pain threshold calculated on the basis of the control value.
The registration can also be done as an on-line procedure. In this case the punching instruction and punching cards will be provided automatically and the results will be registered as a minimal effective dose (MED) determined after van der Waerdens X-test.

[5] = tested on: amphetamine; test: Amphetamine antagonism in rats; assay type: in vivo; conditions: Rattus norvegicus, po, rats, p.o., amphetamine 10 mg/kg base i.v.; read-out: Amphetamine antag. ED50 p.o.
Method: Amphetamine antagonism (ED50 mg/kg i.p.)
as §1
The test substance is given p.o. in a reasonable dose based on the determined LD50. Two or 24 hours later an intravaneous injection of amphetamine sulphate 13.6 mg/kg (10 mg/kg amphetamine base) is given, after which the rats are placed individually in the cages. The cages are placed on white corrugated paper. Five rats are used for each dose level. Observations are made after 55 minutes and 65 minutes-observation time: 1 minute. The animals are observed for stereotypy (movements of the head, compulsive gnawing). […] If the compound has full antagonistic effect another group of rats is used at a lower dose. […] The result is stated as fractions: 0/5, 1/5, 2/5, 3/5, 4/5 and 5/5, where 0, 1, 2, 3, 4 and 5 indicate the number of rats which have not shown stereotypy at the dose in question. The results are calculated as ED50 in mg/kg.

[6] = 2 h, read-out: MePh antag. ED50 2 hr i.p., mice, test substance i.p., 2 hr before methylphenidate 60 mg/kg s.c.
[7] = read-out: MePh antag. ED50 2 hr i.p., mice, test substance i.p., 2 hr before methylphenidate 60 mg/kg s.c.

SMILES | ED50 [1, 6] | LD50 [2] | Ratio catalep./Amphet. [3] | ED50 [3] | MED Grid Shock [4] | ED50 [5] | ED50 [1, 7] | MePh antag. ED50 2 hr i.p. ([1]; mice, test substance i.p., 2 hr before methylphenidate 60 mg/kg s.c.)
OCCN1CCN([C@@H]2C[C@@H](c3ccc(F)cc3)c3ccc(F)cc32)CC1 (relative stereo) [Lu 13-117, 1-(2-hydroxyethyl)-4-(3-(4'-fluorophenyl)-6-fluoro-1-indanyl)piperazine] | 3 mg/kg | 113 mg/kg | 13 | 79 mg/kg | 0.63 | 6 mg/kg |  | 
CN1CCN([C@@H]2C[C@@H](c3ccccc3)c3ccc(Cl)cc32)CC1 (relative stereo) [Lu 14-063] | 29 mg/kg | 80 mg/kg |  | > 40 mg/kg | 5 | > 40 mg/kg |  | 
CN1CCN([C@@H]2C[C@H](c3ccc(F)cc3)c3ccc(Cl)cc32)CC1 (relative stereo) [Lu 14-069] | 5.7 mg/kg | 65 mg/kg |  | > 40 mg/kg | 5 | > 20 mg/kg |  | 
Cc1ccc2c(c1)[C@H](N1CCN(C)CC1)C[C@H]2c1ccc(F)cc1 (relative stereo) [Lu 17-048] | 0.6 mg/kg | 80 mg/kg | 0.7 | 4.8 mg/kg | 0.16 | 6.7 mg/kg |  | 
Cc1ccc2c(c1)[C@H](N1CCN(CCO)CC1)C[C@H]2c1ccc(F)cc1 (relative stereo) [Lu 17-050] | 3.4 mg/kg | 80 mg/kg | 0.8 | 7.7 mg/kg | 0.63 | 9.4 mg/kg |  | 
CSc1ccc2c(c1)[C@H](N1CCN(CCO)CC1)C[C@H]2c1ccc(F)cc1 (relative stereo) [Lu 17-053] | 1.3 mg/kg | 68 mg/kg |  | 6.2 mg/kg | 2.5 | 9.1 mg/kg |  | 
CSc1ccc2c(c1)[C@H](N1CCN(C)CC1)C[C@H]2c1ccc(F)cc1 (relative stereo) [Lu 17-055] | 1.2 mg/kg | 68 mg/kg | 0.7 | 7.2 mg/kg | 5 | 10 mg/kg |  | 
CSc1ccc2c(c1)[C@H](N1CCN(C)CC1)C[C@@H]2c1ccc(F)cc1 (relative stereo) [Lu 17-056] | 20 mg/kg |  |  |  | 5 |  |  | 
O[C@H]1CC[C@H](CN2CCN(C3CC(c4ccc(F)cc4)c4ccc(F)cc43)CC2)CC1 (relative stereo) [Lu 17-059] | 4.3 mg/kg | 94 mg/kg | > 1.4 | > 40 mg/kg | 5 | 28 mg/kg |  | 
OCCN1CCN([C@@H]2C[C@@H](c3ccccc3)c3ccccc32)CC1 (relative stereo) [Lu 17-061] | > 40 mg/kg |  |  |  | 10 |  |  | 
OCCN1CCN([C@@H]2C[C@@H](c3ccc(F)cc3)c3cc(F)ccc32)CC1 (relative stereo) [Lu 17-075] | 6 mg/kg | 80 mg/kg |  | > 40 mg/kg | 2.5 | > 40 mg/kg |  | 
CN1CCN([C@@H]2C[C@@H](c3ccccc3)c3ccccc32)CC1 (relative stereo) [Lu 17-091] | > 40 mg/kg |  |  |  | 10 |  |  | 
OCCN1CCN([C@@H]2C[C@@H](c3ccc(F)cc3)c3cc(Cl)ccc32)CC1 (relative stereo) [Lu 17-116] | > 40 mg/kg |  |  |  | 10 |  |  | 
OCCN1CCN([C@@H]2C[C@H](c3ccc(F)cc3)c3ccc(Cl)cc32)CC1 (relative stereo) [Lu 17-120] | 3.2 mg/kg |  |  | > 20 mg/kg | 2.5 |  |  | 
CN1CCN([C@@H]2C[C@@H](c3ccc(F)cc3)c3ccc(Cl)cc32)CC1 (relative stereo) [Lu 17-121] | 2 mg/kg | 68 mg/kg | 0.3 | 3 mg/kg | 0.63 | 10 mg/kg |  | 
OCCN1CCN([C@@H]2C[C@H](c3ccc(F)cc3)c3ccccc32)CC1 (relative stereo) [Lu 17-124] | > 40 mg/kg |  |  |  | 5 |  |  | 

SMILES | ED50 [1, 6] | LD50 [2] | Ratio catalep./Amphet. [3] | ED50 [3] | MED Grid Shock [4] | ED50 [5] | ED50 [1, 7] | MePh antag. ED50 2 hr i.p. ([1]; mice, test substance i.p., 2 hr before methylphenidate 60 mg/kg s.c.)
O=C1OCCN1CCN1CCN(C2CC(c3ccc(F)cc3)c3ccc(F)cc32)CC1 (stereo not drawn) [Lu 17-039] | 9.1 mg/kg | 113 mg/kg |  | > 80 mg/kg |  | 51 mg/kg |  | 
O=C1NCCN1CCN1CCN(C2CC(c3ccc(F)cc3)c3ccc(F)cc32)CC1 (stereo not drawn) [Lu 17-045] | > 40 mg/kg |  |  | > 80 mg/kg | 2.5 | > 80 mg/kg |  | 
CN1CCN(C2CC(c3ccc(F)cc3)c3cc(F)ccc32)CC1 (stereo not drawn) [Lu 17-071] | > 40 mg/kg |  |  | 31 mg/kg | 10 |  |  | 
Cc1ccc2c(c1)C(N1CCN(CC3CC3)CC1)CC2c1ccc(F)cc1 (stereo not drawn) [Lu 17-130] | 5 mg/kg |  |  | > 40 mg/kg | 5 | > 40 mg/kg |  | 
O=C(CCCN1CCN(C2CC(c3ccc(F)cc3)c3ccc(F)cc32)CC1)c1ccc(F)cc1 (stereo not drawn) [Lu 17-145] | > 40 mg/kg |  |  |  | 5 |  |  | 
CS(=O)(=O)c1ccc2c(c1)C(N1CCN(CCO)CC1)CC2c1ccc(F)cc1 (stereo not drawn) [Lu 18-041] | 10 mg/kg | > 160 mg/kg |  |  | 5 |  |  | 
OCC(CO)N1CCN(C2CC(c3ccc(F)cc3)c3ccc(F)cc32)CC1 (stereo not drawn) [Lu 18-134, 1-(1,3-dihydroxy-2-propy)-4-(3-(4'-fluorophenyl)-6-fluoro-1-indanyl)piperazine] | 1.9 mg/kg |  | 4.9 | 57 mg/kg | < 5 | 11.7 mg/kg |  | 
Fc1ccc(C2CC(N3CCN(CC4CC4)CC3)c3cc(F)ccc32)cc1 (stereo not drawn) [Lu 18-157, 1-cyclopropylmethyl-4-(3-(4'-fluorophenyl)-6-fluoro-1-indanyl)piperazine] | 5 mg/kg | 68 mg/kg |  |  |  |  |  | 
Fc1ccc(C2CC(N3CCN(CCc4ccccc4)CC3)c3cc(F)ccc32)cc1 (stereo not drawn) [Lu 18-159] | 15 mg/kg | 40 mg/kg |  |  |  |  |  | 
Fc1ccc(C2CC(N3CCN(CC=Cc4ccccc4)CC3)c3cc(F)ccc32)cc1 (stereo not drawn) [Lu 18-162, 1-(3-phenyl-2-propenyl)-4-(3-(4'-fluorophenyl)-6-fluoro-1-indanyl)piperazine] | 29 mg/kg |  |  |  |  |  |  | 
OCCCCN1CCN(C2CC(c3ccc(F)cc3)c3ccc(C(F)(F)F)cc32)CC1 (stereo not drawn) [Lu 18-182] | 0.2 mg/kg | 56 mg/kg |  | 0.2 mg/kg |  | 0.2 mg/kg |  | 
OCC(CO)N1CCN(C2CC(c3ccc(F)cc3)c3ccc(C(F)(F)F)cc32)CC1 (stereo not drawn) [Lu 18-185] | 0.2 mg/kg |  |  | 0.3 mg/kg |  | 0.3 mg/kg |  | 
COc1ccc2c3c1O[C@H]1[C@@H](O)C=C[C@H]4[C@@H](C2)N(C)CC[C@@]341 [codeine, reference compound] |  | 110 mg/kg |  |  | 20 |  | > 20 mg/kg | 
CCC(=O)O[C@](Cc1ccccc1)(c1ccccc1)[C@H](C)CN(C)C [dextropropoxyphene, reference compound] |  | 34 mg/kg |  |  | 20 |  | > 20 mg/kg | 
CN1CC[C@]23c4c5ccc(O)c4O[C@H]2[C@@H](O)C=C[C@H]3[C@H]1C5 [morfine, reference compound] |  |  |  |  | 2.5 |  |  | > 40 mg/kg
